# Assays:
# HIV-strain pNL4-3 = assay: HIV-1 replication in acutely infected PBMC (CA-p24 ELISA); assay type: cell-based; details: 2.8 nM
# Protocol: Experiments were conducted to assess the effect of the compounds of the instant invention on HIV-1 replication in acutely infected T cells. Peripheral blood mononuclear cells (PBMC) were obtained from non-HIV-1, non-HIV-2, non-Hepatitis B/C infected donors, stimulated with phytohemagglutinin-M and grown in culture media supplemented with 10 U/mL interleukin-2. The activated PBMC were infected with […] (Low Titre) and 100 ng (High Titre) of CA-p24 equivalents of the HIV-strain pNL4-3. Cells were infected for two hr after which, the virus was removed and the cells were washed with culture media. Equivalent numbers of cells were seeded into 24 well plates and compounds were added to the cultured cells that included: TPA at 8 nM and 80 nM, Ingenol at 280 nM, PEP003 at 500 nM, 50 nM and 5 nM, or PEP004 at dilutions of 1×10^4 and 1×10^5 from the stock (final concentrations). In addition, uninfected activated PBMC were grown in the presence of TPA (80 nM), Ingenol (280 nM), PEP003 (500 nM) and PEP004 (1×10^4 dilution). Other cultures were neither infected nor treated with any compound, or infected but not treated with any compound. Supernatant was removed from each culture at day 0, 3, 7, and 10. The amount of HIV-1 CA-p24 was determined using a commercially available ELISA assay. Three independent experiments were performed.
# PKCζ = target: T1, PKCζ (Homo sapiens, UniProt Q05513); assay: EGFP-PKC translocation in HeLa cells (PKCζ); assay type: cell-based; details: one hour, same concentrations
# T1 construct: host or cells: HeLa cells
# T1 sequence (Q05513 1-592): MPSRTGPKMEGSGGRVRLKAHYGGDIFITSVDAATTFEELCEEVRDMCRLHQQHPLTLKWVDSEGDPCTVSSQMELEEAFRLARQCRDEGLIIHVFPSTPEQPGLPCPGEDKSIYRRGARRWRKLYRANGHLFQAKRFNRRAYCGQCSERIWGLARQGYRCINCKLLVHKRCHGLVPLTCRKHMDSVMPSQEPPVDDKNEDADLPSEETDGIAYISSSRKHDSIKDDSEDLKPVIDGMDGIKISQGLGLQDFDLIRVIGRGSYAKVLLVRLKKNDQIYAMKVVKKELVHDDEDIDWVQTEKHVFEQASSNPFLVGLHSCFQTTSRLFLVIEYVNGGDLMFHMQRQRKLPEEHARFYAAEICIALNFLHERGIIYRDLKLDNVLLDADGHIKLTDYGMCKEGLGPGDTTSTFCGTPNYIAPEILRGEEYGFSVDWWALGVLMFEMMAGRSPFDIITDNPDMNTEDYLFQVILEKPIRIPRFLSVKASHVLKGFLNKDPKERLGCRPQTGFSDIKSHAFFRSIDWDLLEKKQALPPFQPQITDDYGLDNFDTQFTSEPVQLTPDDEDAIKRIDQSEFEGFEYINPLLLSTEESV
# Protocol: (§1) Five EGFP-PKC isoforms (Clontech) were available for this experiment, enabling the screening of the three predominant PKC families (i.e. classical, novel and atypical PKCs). The members of the various PKC families are α, β, and γ (classical), θ (novel) and ζ (atypical).
# (§2) HeLa cells were plated out in a 24-well plate containing coverslips and transfected with PKC isoforms fused to EGFP, using a commercially available effectine-transfection kit (QIAGEN, Pty. Ltd.). Cells were exposed to the transfection reagents for 16-24 hr. Subsequently, transfected cells were treated for one hour with TPA (100 ng/mL), bryostatin-1 (5 pg/mL), PEP003 (2.25 μg/mL; 5 μM) or PEP005 ([…]) 1.5 μM). Following treatment, cells were fixed on coverslips and mounted on glass slides. The slides were subsequently examined visually by fluorescence microscopy, photographed, and over 150 cells were counted/treatment/PKC isoform. Counted cells were classified according to the localisation of the PKC-EGFP fluorescence as either cytoplasmic or plasma membrane using ImagePro™ 4.1 (FIG. 5). […] The number of these cells was also counted. Results are presented as an average and standard deviation of percentages of cells (Table 1).
# PKCα = target: T2, PKCα (Homo sapiens, UniProt P17252); assay type: cell-based; details: HeLa, one hour; TPA 100 ng/mL, bryostatin-1 5 pg/mL, PEP003 2.25 μg/mL (5 μM)
# T2 construct: host or cells: HeLa cells
# Protocol: as §1
# as §2, with “counted.” for “counted. Results are presented as an average and standard deviation of percentages of cells (Table 1).”
# PKCγ = target: T3, PKCγ (Homo sapiens, UniProt P05129); assay: EGFP-PKC translocation in HeLa cells (PKCγ); assay type: cell-based; details: one hour, TPA 100 ng/mL, bryostatin-1 5 pg/mL, PEP003 2.25 μg/mL (5 μM), PEP005 670 μg/mL (1.5 μM)
# T3 construct: host or cells: HeLa cells
# Protocol: as §1, §2
# PKCθ = target: T4, PKCθ (Homo sapiens, UniProt Q04759); assay: EGFP-PKC translocation in HeLa cells (PKCθ); assay type: cell-based; details: one hour, same concentrations
# T4 construct: host or cells: HeLa cells
# Protocol: as §1, §2
# adenovirus 5 = assay: Adenovirus replication in human melanoma cells; assay type: cell-based; details: 2 days
# Description: Human melanoma cells were infected with ten-fold dilutions of adenovirus 5 in culture, treated with dilutions of PEP005, PEP006, PEP008 and PEP010 and adenovirus replication determined 2 days later by immunhistochemical detection of virus-replicating cells.
# PKCβ = target: T5, PKCβ (Homo sapiens, UniProt P05771); assay: EGFP-PKC translocation in HeLa cells (PKCβ); assay type: cell-based; details: one hour
# T5 construct: host or cells: HeLa cells
# Protocol: as §1, §2
# [1] = tested on: peripheral blood mononuclear cells; assay: Phagocytosis with fluorescent beads; assay type: cell-based; details: 30 min, whole heparinized blood
# Protocol: Phagocytosis by peripheral blood mononuclear cells (PBMCs) was assayed (Steinkamp et al., 1982) using 1 μm Fluoresbrite™ yellow-green fluorescent latex spheres (Polysciences, Inc., Warrington, Pa.). A sample of whole, heparinized blood was treated with drug and 5×10E7 fluorescent latex beads in 10 μL of PBS added per mL of suspension. Cells were incubated and maintained in suspension for 30 min by means of a shaker platform at 37° C. The stimulated and non-stimulated samples were then lysed to isolate PBMCs. The PBMCs were run on the flow cytometer measuring FITC (excitation at 488 nm, emission at 525±20 nm), gated for fluorescence (phagocytosed spheres) and light scatter (cell size).
# [2] = tested on: neonatal foreskin fibroblasts; assay: Pretreated fibroblasts, killing by untreated leukocytes; assay type: cell-based, human; details: targets pretreated with 60 ng/mL for 20 hr, 100:1 effector:target
# Protocol: (§3) Leukocytes obtained by lysis of human peripheral blood were added to 5000 MM96L human melanoma cells or 7000 neonatal foreskin fibroblasts per microtitre well at effector: target ratios of 1000, 100 and 10:1. The target cells had been treated with 60 ng/mL PEP008 for 20 hr beforehand, and washed and the medium replaced before the leukocytes were added. After 48 hr incubation with the leukocytes the cultures were washed and labelled with [3H]-thymidine for 2 hr. […] Untreated leukocytes had no effect on cell survival.
# [3] = tested on: MM96L human melanoma cells; assay: Pretreated MM96L cells, killing by untreated leukocytes; assay type: cell-based; details: targets pretreated with 60 ng/mL for 20 hr, 100:1 effector:target
# Protocol: as §3
# [4] = tested on: MM96L human melanoma cells; assay: Leukocytes plus drug, killing of MM96L cells ([3H]-thymidine); assay type: cell-based; details: 60 ng/mL, 48 hr, 100:1 effector:target
# Protocol: (§4) Leukocytes obtained by lysis of human peripheral blood were added to 5000 MM96L human melanoma cells or 7000 neonatal foreskin fibroblasts per microtitre well at effector: target ratios of 1000, 100 and 10:1. Ing9 (60 ng/mL) was added and after 48 hr incubation the cultures were washed and labelled with [3H]-thymidine for 2 hr. […] Untreated leukocytes had no effect on cell survival.
# [5] = tested on: neonatal foreskin fibroblasts; assay: Leukocytes plus drug, killing of fibroblasts ([3H]-thymidine); assay type: cell-based, human; details: 60 ng/mL, 48 hr, 100:1 effector:target
# Protocol: as §4
# [6] = tested on: Peripheral blood mononuclear cells (granulocytes, monocytes, lymphocytes); assay: Respiratory burst, DCFH-DA H2O2 flow cytometry; assay type: cell-based; details: 15 min at 37° C.
# Protocol: Experiments were also carried out using 2′,7′-dichlorofluorescein diacetate (DCFH-DA) to measure the production of H2O2. (J P Robinson, Oxidative burst methods, in Handbook of Flow Cytometry Methods, Wiley-Liss Inc, pp 147-149, 1993). H2O2 oxidizes the non-fluorescent probe (DCFH-DA) to a fluorescent probe that can then be detected by a flow cytometer. Peripheral blood mononuclear cells (PBMC) were extracted from a donor blood sample by lysis of heparinized blood and used in a suspension of 1×10^6/mL of phosphate buffer, pH 7.3. The cells were then incubated with DCFH-DA (1 μL/mL of 20 mM stock) for 15 minutes to allow it to be taken up and trapped by hydrolysis with cellular esterases. The cells were then stimulated by test compounds for 15 min at 37° C. Controls included in the experiment were unloaded control (cells with no DCFH-DA) and loaded control (cells with DCFH-DA, but no stimulation). These were used to monitor the non-specific oxidation of unstimulated cells. The cells were then analyzed on the flow cytometer (excitation at 488 nm, emission at 525±20 nm), gating each sample for individual cell populations—granulocytes, monocytes and lymphocytes (Table 3).
# [7] = tested on: phorbol ester binding site of PKC; assay: [3H]-phorbol dibutyrate competition assay, rat brain homogenate
# Protocol: A competition assay was performed to determine whether the diterpene esters of the instant invention bind to the phorbol ester binding site of PKC. […] This binding was not blocked by co-incubation with bisindolylmaleimide.
# rat brain PKC = assay: PKC kinase activity, PepTag non-radioactive protein kinase assay; assay type: biochemical; details: PepTag gel; various dilutions of TPA; ether extract final dilution 1 in 5; crude sap and aqueous layer diluted 1/25
# Protocol: The kinase activity of rat brain PKC (Promega) was determined using the Peptag™ Non-Radioactive Protein Kinase Kit (Promega). Using agarose gel electrophoresis the technique visualises the opposing electrostatic charge of a fluorescently labeled peptide ([sequence]) compared to the phosphorylated version of the same peptide.
# The reaction mixture was separated by gel electrophoresis, showing migration of the unreacted substrate (a) to the anode (top), and the product (b), which is more negatively charged because of phosphorylation by PKC, moving towards the cathode (bottom).
# T5 sequence (P05771 whole entry, species assumed): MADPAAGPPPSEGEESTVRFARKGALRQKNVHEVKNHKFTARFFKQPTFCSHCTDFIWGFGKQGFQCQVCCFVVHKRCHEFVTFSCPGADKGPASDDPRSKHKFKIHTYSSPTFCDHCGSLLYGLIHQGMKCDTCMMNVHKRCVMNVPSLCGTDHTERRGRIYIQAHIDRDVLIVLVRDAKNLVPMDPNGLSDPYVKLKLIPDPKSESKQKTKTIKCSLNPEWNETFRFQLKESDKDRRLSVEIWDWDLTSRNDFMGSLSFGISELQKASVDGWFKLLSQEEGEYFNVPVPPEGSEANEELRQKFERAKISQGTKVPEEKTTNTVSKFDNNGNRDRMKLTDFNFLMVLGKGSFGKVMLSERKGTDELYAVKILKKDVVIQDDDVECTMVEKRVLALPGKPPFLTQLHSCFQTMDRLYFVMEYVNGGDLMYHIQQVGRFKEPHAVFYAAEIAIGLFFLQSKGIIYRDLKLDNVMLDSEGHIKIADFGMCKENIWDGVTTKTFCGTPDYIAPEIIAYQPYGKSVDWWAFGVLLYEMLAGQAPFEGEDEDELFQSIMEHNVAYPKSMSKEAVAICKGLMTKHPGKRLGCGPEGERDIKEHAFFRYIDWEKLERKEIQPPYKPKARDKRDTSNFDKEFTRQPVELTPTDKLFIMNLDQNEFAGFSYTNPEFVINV
# T4 sequence (Q04759 whole entry): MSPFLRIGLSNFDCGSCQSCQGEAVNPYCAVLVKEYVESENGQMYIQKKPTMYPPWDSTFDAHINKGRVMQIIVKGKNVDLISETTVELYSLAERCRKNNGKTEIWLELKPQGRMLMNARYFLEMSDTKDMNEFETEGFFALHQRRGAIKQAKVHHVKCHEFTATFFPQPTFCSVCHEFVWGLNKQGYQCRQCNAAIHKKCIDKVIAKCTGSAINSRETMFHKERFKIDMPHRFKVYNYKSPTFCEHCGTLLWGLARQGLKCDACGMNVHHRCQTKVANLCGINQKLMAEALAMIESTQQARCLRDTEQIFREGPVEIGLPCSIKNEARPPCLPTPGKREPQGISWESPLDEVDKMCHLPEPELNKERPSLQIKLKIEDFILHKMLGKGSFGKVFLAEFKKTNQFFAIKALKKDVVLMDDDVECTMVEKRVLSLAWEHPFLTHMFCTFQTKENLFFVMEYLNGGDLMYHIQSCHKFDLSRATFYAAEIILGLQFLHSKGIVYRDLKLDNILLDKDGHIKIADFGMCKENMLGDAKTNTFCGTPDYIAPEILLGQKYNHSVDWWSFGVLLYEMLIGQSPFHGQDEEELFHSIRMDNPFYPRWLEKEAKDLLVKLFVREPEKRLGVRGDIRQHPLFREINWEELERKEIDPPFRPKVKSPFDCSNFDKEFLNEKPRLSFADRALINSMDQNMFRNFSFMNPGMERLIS
compound,measurement,setting,value
CC1=C[C@]23C(=O)[C@@H](C=C(CO)[C@@H](O)[C@]2(O)[C@H]1O)[C@H]1[C@@H](C[C@H]3C)C1(C)C [Ingenol],reduction of HIV-1 replication rate,HIV-strain pNL4-3,approximately 35%
"C/C=C(/C)C(=O)O[C@H]1C(C)=C[C@]23C(=O)[C@@H](C=C(CO)[C@@H](O)[C@]12O)[C@H]1[C@@H](C[C@H]3C)C1(C)C [PEP005, ingenol-3-angelate]",translocation of PKCζ,PKCζ,fail to induce translocation
same,translocation of PKCα from cytoplasm to plasma membrane,PKCα,translocated from the cytoplasm to the plasma membrane
same,translocation of PKCγ from cytoplasm to plasma membrane,PKCγ,translocated from the cytoplasm to the plasma membrane
same,translocation of PKCθ,PKCθ,does not induce any change
same,increase in adenovirus replication (number of stained cells),adenovirus 5; 67 ng/mL,344%
same,number of PKCβ transfected cells with Golgi-like fluorescence,PKCβ,decreases the number of cells
same,translocation of PKCβ from cytoplasm to plasma membrane,"PKCβ; TPA 100 ng/mL, bryostatin-1 5 pg/mL, PEP003 2.25 μg/mL (5 μM), PEP005 670 μg/mL (1.5 μM)",translocated from the cytoplasm to the plasma membrane
same,phagocytosis of fluorescent latex spheres in PBMCs,[1],stimulate phagocytosis
"C/C=C(/C)C(=O)O[C@H]1C(C)=C[C@]23C(=O)[C@H](C=C(C)[C@@H](O)[C@]12O)[C@H]1[C@@H](C[C@H]3C)C1(C)C [PEP006, 20-deoxy-ingenol-3-angelate]",increase in adenovirus replication (number of stained cells),adenovirus 5; 295 ng/mL,256%
same,phagocytosis of fluorescent latex spheres in PBMCs,[1],stimulate phagocytosis
"C/C=C(/C)C(=O)O[C@H]1C(C)=C[C@]23C(=O)[C@@H](C=C(COC(C)=O)[C@@H](O)[C@]12O)[C@H]1[C@@H](C[C@H]3C)C1(C)C [PEP008, 20-O-acetyl-ingenol-3-angelate]",survival of normal fibroblasts,[2],100%
same,survival of melanoma cells,[3],12%
same,increase in adenovirus replication (number of stained cells),adenovirus 5; 226 ng/mL,248%
same,survival of melanoma cells,[4],9%
same,phagocytosis of fluorescent latex spheres in PBMCs,[1],stimulate phagocytosis
same,survival of normal fibroblasts,[5],100%
CCC/C=C/C=C/C(=O)O[C@H]1/C(=C/C(=O)OC)C[C@H]2C[C@H]([C@@H](C)O)OC(=O)C[C@H](O)C[C@@H]3C[C@H](OC(C)=O)C(C)(C)[C@](O)(C[C@@H]4C/C(=C/C(=O)OC)C[C@H](/C=C/C(C)(C)[C@]1(O)O2)O4)O3 [bryostatin-1],translocation of PKCζ,PKCζ,fail to induce translocation
same,translocation of PKCγ from cytoplasm to plasma membrane,PKCγ,not with bryostatin-1
same,"induction of respiratory burst (H2O2, DCFH-DA)",[6],All compounds except Bryostatin induced a respiratory burst
same,translocation of PKCθ,PKCθ,translocated
same,number of PKCβ transfected cells with Golgi-like fluorescence,PKCβ,decreases the number of cells
bisindolylmaleimide,binds to the phorbol ester binding site of PKC,[7],does not
phosphatidyl serine,activation of PKC (FIG. 1),rat brain PKC,strong activation
